Key:
Male Wistar rats [1] = assay: Carrageenin oedema test for anti-inflammatory activity; assay type: in vivo; details: Rattus norvegicus, po, inhibitory rate, 100 mg/kg per os, paw volume 3 hours after carrageenin injection
Protocol: Details of certain of the pharmacological tests are as follows: • Carrageenin oedema test for anti-inflammatory activity
Male Wistar rats weighing 120-150 g were fasted overnight and then received a test compound per os as an aqueous tragacanth suspension. 30 minutes later, inflammation was induced by the subcutaneous injection of 0.05 ml of a 1% carrageenin suspension into the plantar tissue of a hind paw of each rat [Winter et al., Proc. Soc. Exp. Biol. Med., 111, 544 (1962)]. The anti-oedema activity was measured volumetrically, by assessing the response, as calculated from the following equation: [formula] where Vo and V represent, respectively, the paw volume immediately before and 3 hours after the carrageenin injection. The test compounds were administered at a dose of 100 mg/kg and the results are reported in the following Table as the inhibitory rate, that is the percentage inhibition of the […].

Male Wistar rats [2] = assay: Pain test for analgesic activity (modified Randall-Selitto, Brewers' yeast inflamed paw); assay type: in vivo; details: po; number of effective animals / total number of animals in group; 50 mg/kg orally; pain threshold 1 and 2 hours after administration; effective = at least twice mean pain threshold of controls
Protocol: Pain test for analgesic activity
This test was conducted according to a modification of the method reported by L.O. Randall and J.J. Selitto in Arch. Int. Pharmacodyn., 11, 409 (1959), proposed by Winter and Flatake (1957).
Male Wistar rats of 4 weeks of age and weighing 60-90 g were injected with 0.1 ml of a 20% by weight suspension of Brewers' yeast in the right hind paw. […] Each of these was given orally a test compound as an aqueous tragacanth suspension at a dose of 50 mg/kg. 1 and 2 hours after administration of the test compound, the pain threshold was determined by observing pain responses (such as struggling or squeaking) when the inflamed or normal paw was subjected to pressure by a machine (Ugo-Basile). […] The results are reported as the number of effective animals as a proportion of the total number of animals in each group.

Compound	inhibition in vivo at 100 mg/kg (Male Wistar rats [1]) [%]	responders at 50 mg/kg (Male Wistar rats [2]) [%]
COc1ccc2c(n1)C(C)=CC(C)(C)N2 [Compound No. 1, 6-methoxy-2,2,4-trimethyl-1,2-dihydro-1,5-naphthyridine]	62.6	60
CC1=CC(C)(C)Nc2ccc(Cl)nc21 [Compound No. 13, 6-chloro-2,2,4-trimethyl-1,2-dihydro-1,5-naphthyridine]	56.6	60
CC1=CC(C)(C)Nc2ccc(Oc3ccccc3)nc21 [Compound No. 5, 2,2,4-trimethyl-b-phenoxy-1,2-dihydro-1,5-naphthyridine]	53.6	60
CCCCOc1ccc2c(n1)C(C)=CC(C)(C)N2 [Compound No. 4, 6-butoxy-2,2,4-trimethyl-1,2-dihydro-1,5-naphthyridine]	65.4	60
CCOc1ccc2c(n1)C(C)=CC(C)(C)N2 [Compound No. 2, 6-ethoxy-2,2,4-trimethyl-1,2-dihydro-1,5-naphthyridine]	58.2	20
COc1ccc2c(n1)C(C)=CC(C)(C)N2C(C)=O [Compound No. 27, 1-acetyl-6-methoxy-2,2,4-trimethyl-1,2-dihydro-1,5-naphthyridine]	53.3	20
CC1=CC(C)(C)Nc2ccc(Oc3cccnc3)nc21 [compound 18, 2,2,4-trimethyl-6-(3-pyridyloxy)-1,2-dihydro-1,5-naphthyridine]	76	80
COc1ccc2c(n1)C(C)=CC(C)(C)N2C [Compound No. 25, 6-methoxy-1,2,2,4-tetramethyl-1,2-dihydro-1,5-naphthyridine]	54.8	40
